{"source": "patent US20230125429A1", "about": "(priority 2017, published 2023)", "key": {"[1]": {"test_system": "serum starved HepG2 cells", "assay_type": "cell-based, human"}, "[2]": {"test_system": "ERK phosphorylation", "test": "ERK phosphorylation in HepG2 cells (Western blot)", "assay_type": "cell-based, human", "conditions": "serum-starved HepG2; trypsin 50 nM, Triptolide 1 µM, Triptonide 1 µM; 0-40 minutes"}, "[3]": {"conditions": "cited from earlier work"}, "[4]": {"test_system": "SNB-19", "test": "Growth inhibitory effect, one hour exposure (IncuCyte Zoom)", "assay_type": "cell-based, human", "conditions": "SNB-19, CNS", "experimental": "(§1) Cancer cell lines and immortalized human cell lines were cultured in 1640 tissue culture medium (Corning, USA) with 10% fetal bovine serum in a standard tissue culture condition of 37° C. and 5% CO2.\n(§2) For primary hepatocytes, the seeded cells were monitored for up to 48 hours either without any treatment (as a control) or with various types of treatments. For primary keratinocytes, cells in 48-well plates were monitored either without any treatment or with various types of treatment for up to 96 hours. For HepG2, cells 96-well plates were monitored either without any treatment or with various types of treatments for up to 48 hours. The IncuCyte Zoom was set to take a set of images at fixed locations (4 per well for 96-well plates and 16 per well for 48-well plates and 12-well plates) every three hours.\n(§3) The one-hour exposure is intended to simulate the transient high concentrations within the liver as the results of either the first pass effects of some orally administered drugs, or of locally delivered drugs, anticipating that such a short term exposure is nevertheless sufficient to affect certain cell surface receptors without causing any significant off-target effects due to intracellular absorption. Such a strategy would also reduce false hits due to reversible cell cycle arrests.\n(§4) To address this possibility, we investigated whether other cell lines, including other HCC cell lines, cell lines from other type of cancers, as well as non-cancer immortalized/transformed cell lines, were also sensitive to Triptonide. Specifically, a total of 51 human cancer cell lines, representing 10 types of human cancers (6 non-small cell lung cancer cell lines, 5 colon cancer cell lines, 5 central nerve system cancer cell lines, 8 Melanomas cell lines, 4 ovarian cancer cell lines, 4 renal cancer cell lines, 2 prostate cancer cell lines, 3 breast cancer cell lines, 7 hepatocellular carcinoma cell lines, and 4 gastric cancer cell lines) were analyzed."}, "[5]": {"test_system": "LM9", "test": "Growth inhibitory effect, one hour exposure (IncuCyte Zoom)", "assay_type": "cell-based, human", "conditions": "LM9, Hepatocellular carcinoma", "experimental": "as §1, §2, §3, §4"}, "[6]": {"test_system": "Hep3B", "test": "Growth inhibitory effect, one hour exposure (IncuCyte Zoom)", "assay_type": "cell-based, human", "conditions": "Hepatocellular carcinoma", "experimental": "as §1, §2, §3, §4"}, "[7]": {"test_system": "SGC7901", "test": "Growth inhibitory effect, one hour exposure (IncuCyte Zoom)", "assay_type": "cell-based, human", "conditions": "SGC7901, Gastric cancer", "experimental": "as §1, §2, §3, §4"}, "[8]": {"test_system": "SF-268", "test": "Growth inhibitory effect, one hour exposure (IncuCyte Zoom)", "assay_type": "cell-based, human", "conditions": "SF-268, CNS", "experimental": "as §1, §2, §3, §4"}, "[9]": {"test_system": "SK-MEL-2", "test": "Growth inhibitory effect, one hour exposure (IncuCyte Zoom)", "assay_type": "cell-based, human", "conditions": "SK-MEL-2, Melanoma", "experimental": "as §1, §2, §3, §4"}, "[10]": {"test_system": "HCT-116", "test": "Growth inhibitory effect, one hour exposure (IncuCyte Zoom)", "assay_type": "cell-based, human", "conditions": "HCT-116, Colon", "experimental": "as §1, §2, §3, §4"}, "[11]": {"test_system": "ACHN", "test": "Growth inhibitory effect, one hour exposure (IncuCyte Zoom)", "assay_type": "cell-based, human", "conditions": "Renal", "experimental": "as §1, §2, §3, §4"}, "[12]": {"test_system": "OVCAR-8", "test": "Growth inhibitory effect, one hour exposure (IncuCyte Zoom)", "assay_type": "cell-based, human", "conditions": "OVCAR-8, Ovarian", "experimental": "as §1, §2, §3, §4"}, "[13]": {"test_system": "EKVX", "test": "Growth inhibitory effect, one hour exposure (IncuCyte Zoom)", "assay_type": "cell-based, human", "conditions": "Non-Small Cell Lung", "experimental": "as §1, §2, §3, §4"}, "[14]": {"test_system": "NCI-H522", "test": "Growth inhibitory effect, one hour exposure (IncuCyte Zoom)", "assay_type": "cell-based, human", "conditions": "NCI-H522, Non-Small Cell Lung", "experimental": "as §1, §2, §3, §4"}, "[15]": {"test_system": "NCI-H226", "test": "Growth inhibitory effect, one hour exposure (IncuCyte Zoom)", "assay_type": "cell-based, human", "conditions": "NCI-H226, Non-Small Cell Lung", "experimental": "as §1, §2, §3, §4"}, "[16]": {"test_system": "SK-OV-3", "test": "Growth inhibitory effect, one hour exposure (IncuCyte Zoom)", "assay_type": "cell-based, human", "conditions": "SK-OV-3, Ovarian", "experimental": "as §1, §2, §3, §4"}, "[17]": {"test_system": "SNU-387", "test": "Growth inhibitory effect, one hour exposure (IncuCyte Zoom)", "assay_type": "cell-based, human", "conditions": "SNU-387, Hepatocellular carcinoma", "experimental": "as §1, §2, §3, §4"}, "[18]": {"test_system": "CAKI-1", "test": "Growth inhibitory effect, one hour exposure (IncuCyte Zoom)", "assay_type": "cell-based, human", "conditions": "CAKI-1, Renal", "experimental": "as §1, §2, §3, §4"}, "[19]": {"test_system": "51 human cancer cell lines", "test": "Growth inhibitory effect, one hour exposure, whole panel", "assay_type": "cell-based", "conditions": "mean over the 51 cancer cell lines", "experimental": "as §1\nFor primary hepatocytes, the seeded cells were monitored for up to 48 hours either without any treatment (as a control) or with various types of treatments. For primary keratinocytes, cells in 48-well plates were monitored either without any treatment or with various types of treatment for up to 96 hours. For HepG2, cells 96-well plates were monitored either without any treatment or with various types of treatments for up to 48 hours. […]\nas §4"}, "[20]": {"test_system": "HepG2-GFP orthotopic xenograft tumor"}, "[21]": {"test_system": "mimosine treated HepG2 cells", "test": "Cell cycle analysis by flow cytometry (PI staining)", "assay_type": "cell-based, human", "conditions": "for G2/M cells: 1 µM"}, "[22]": {"test_system": "PMHs"}, "[23]": {"test_system": "Par2 knockout keratinocytes", "test": "Growth of Par2 knockout primary keratinocytes, one hour treatment", "assay_type": "cell-based, mouse", "conditions": "one hour treatment"}, "[24]": {"test_system": "LO2", "test": "Growth inhibitory effect, one hour exposure (IncuCyte Zoom)", "assay_type": "cell-based, human", "conditions": "LO2, immortalized hepatocytes"}, "[25]": {"test_system": "HepG2 cells", "test": "Blocking the AC-cAMP-PKA pathway, growth of HepG2 cells", "assay_type": "cell-based, human"}, "[26]": {"test_system": "GES-1", "test": "Growth inhibitory effect, one hour exposure (IncuCyte Zoom)", "assay_type": "cell-based, human", "conditions": "GES-1, immortalized gastric epithelium"}, "[27]": {"test": "Lethal dose and maximum tolerable dose in mice", "assay_type": "in vivo", "experimental": "Thus, a second preliminary experiment was carried out in tumor-bearing nude mice to determine whether an antitumor effect could be achieved within the non-toxic range. […] Thus, the 25 mg/kg once every other day regimen was selected for the preclinical experiment. The volumes of individual tumors were assessed by bioluminescent imaging.\nThus, we first determined the lethal dose and the maximum tolerable dose (MTD) of Triptonide for mice based on a once every other day regimen. […] It is noted that once every other day might not be the optimal scheme. Nonetheless, we decided to begin with this scheme and the 25% value of the MTD, i.e. 25 mg/kg."}, "[28]": {"conditions": "rodents, intraperitoneal injection"}}, "note": "Values joined by “and” are separate entries in the source; they are usually repeats but may differ in a detail not shown here. Equal values may be shown once. “Also recorded” adds a separate entry of the source.", "data": [{"smiles": "CC(C)[C@]12O[C@H]1[C@@H]1O[C@@]13[C@@]1(C)CCC4=C(COC4=O)[C@@H]1C[C@@H]1O[C@@]13C2=O", "note": "[Triptonide]", "values": [{"measurement": "cells exhibiting the features of mitotic catastrophe", "setting": "[1]", "result": "approximately 60%"}, {"measurement": "effect on growth of serum starved HepG2 cells", "setting": "[1]", "result": "no significant impacts; also recorded: growth inhibitory only when it was administered at the 0 and 2 hours after the starvation"}, {"measurement": "levels of phosphorylated ERK", "setting": "[2]", "result": "only an acute transient increase"}, {"measurement": "change of plasma concentration on redistribution", "setting": "[3]; rodent, following an oral dosing", "result": "several dozen folds of decrease"}, {"measurement": "T1/2 alpha", "setting": "[3]; [28]", "result": "0.17 to 0.195", "unit": "h"}, {"measurement": "T1/2 beta", "setting": "[3]; [28]", "result": "4.95 to 6.49", "unit": "h"}, {"measurement": "IC50", "setting": "[4]", "result": 51, "unit": "µM"}, {"measurement": "IC50", "setting": "[5]", "result": 4.24, "unit": "µM"}, {"measurement": "IC50", "setting": "[6]", "result": 1.28, "unit": "µM"}, {"measurement": "IC50", "setting": "[7]", "result": 12, "unit": "µM"}, {"measurement": "IC50", "setting": "[8]", "result": 11.8, "unit": "µM"}, {"measurement": "IC50", "setting": "[9]", "result": 0.608, "unit": "µM"}, {"measurement": "IC50", "setting": "[10]", "result": 2.57, "unit": "µM"}, {"measurement": "IC50", "setting": "[11]", "result": 15, "unit": "µM"}, {"measurement": "IC50", "setting": "[12]", "result": 7.29, "unit": "µM"}, {"measurement": "IC50", "setting": "[13]", "result": 2.38, "unit": "µM"}, {"measurement": "IC50", "setting": "[14]", "result": 23.1, "unit": "µM"}, {"measurement": "IC50", "setting": "[15]", "result": 11.2, "unit": "µM"}, {"measurement": "IC50", "setting": "[16]", "result": 3.89, "unit": "µM"}, {"measurement": "IC50", "setting": "[17]", "result": 6.82, "unit": "µM"}, {"measurement": "IC50", "setting": "[18]", "result": 6.15, "unit": "µM"}, {"measurement": "IC50", "setting": "[19]", "result": "7.31 µM and 7.66 µM"}, {"measurement": "average body weight of the animals", "setting": "[20]; 25 mg/kg by gavage every other day", "result": "did not have any significant impact"}, {"measurement": "tumor specific signals during follow-up", "setting": "[20]; remaining mice, another four months without further treatments", "result": "No tumor specific signals were ever detected again"}, {"measurement": "autopsy for tumors", "setting": "[20]; six of the treated mice", "result": "did not reveal any signs of tumors"}, {"measurement": "G2/M cells", "setting": "[21]; 11 hours after mimosine release", "result": 82, "unit": "%"}, {"measurement": "G2/M cells", "setting": "[21]; 24 hours after mimosine release", "result": 80, "unit": "%"}, {"measurement": "G2/M cells", "setting": "[21]; 37 hours after mimosine release", "result": 78, "unit": "%"}, {"measurement": "sub-G1 (<2N, apoptotic) population", "setting": "[21]; 10 µM, by 24 hours", "result": "significant peaks of the sub-G1"}, {"measurement": "effect of continuous exposure on PMHs", "setting": "[22]", "result": "complete death"}, {"measurement": "toxic effect on PMHs", "setting": "[22]", "result": "no significant toxic effect"}, {"measurement": "effect on growth of Par2 knockout keratinocytes", "setting": "[23]; 100 and 200 µM", "result": "growth inhibitory effects"}, {"measurement": "IC50", "setting": "[23]; Par2 knockout keratinocytes", "result": 25.7, "unit": "µM"}, {"measurement": "effect on growth of Par2 knockout keratinocytes", "setting": "[23]; concentrations up to 26 µM", "result": "did not cause significant growth inhibition"}, {"measurement": "IC50", "setting": "[24]", "result": 0.642, "unit": "µM"}, {"measurement": "effect on growth of HepG2 cells", "setting": "[25]", "result": "significant growth inhibitory effect"}, {"measurement": "IC50", "setting": "[26]", "result": 16.7, "unit": "µM"}, {"measurement": "mortality", "setting": "[27]; 100 mg/kg three times a day, four-hour interval, within four days", "result": "all animals were dead"}, {"measurement": "death", "setting": "[27]; 200 mg/kg oral, once every other day, within four days", "result": 100, "unit": "%"}, {"measurement": "adverse effects", "setting": "[27]; up to 100 mg/kg oral, once every other day", "result": "did not cause any significant adverse effects; also recorded: did not result in any significant adverse effects"}]}]}
